Tests used:
Format in all cases: cell-based
PTGER2 (EP2) = target: T1, PTGER2 (EP2) (Homo sapiens, UniProt P43116); test: hEP2 b-Arrestin Assay (PathHunter HEK 293 PTGER2 b-arrestin cells, PGE2 5 μM); details: antagonistic activity, beta-arrestin assay, HEK 293 PTGER2 cells, PGE2 5 μM (EC80); read-out: hEP2 b-arr IC50
T1 construct: host or cells: HEK 293 (PathHunter, stably transfected)
Outline: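 PathHunter enzyme-fragment complementation in HEK 293 cells: compounds (10 μM-2 nM or 1 μM-0.2 nM) pre-incubated 15 min at 37 °C, then 5 μM PGE2 (EC80) for 120 min at 37 °C. Chemiluminescence read after 1 h detection; IC50 from duplicate dose-response fits, means of repeats.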

EP2 = target: T2, EP2 (Homo sapiens, UniProt P43116); test: hEP2 cAMP Assay (SF295 glioblastoma cells, HTRF cAMP, PGE2 75 nM); details: antagonistic activity, PGE2 75 nM (EC80)
T2 construct: SF295 glioblastoma cells express high endogenous EP2 and no EP4; host or cells: SF295 glioblastoma cells
Outline: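 IC50 values derive from duplicate-point curves of percent cAMP relative to DMSO, read by HTRF (665/620 nm) against a cAMP calibrator. Compounds (30 μM to 0.01 nM ranges) were given 45 min at room temperature before 30 min with 75 nM PGE2, in EP2-only SF295 cells with 2 mM IBMX.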

EP4 = target: T3, EP4 (Homo sapiens, UniProt P35408); test: hEP4 cAMP Assay (BT549 breast cancer cells, HTRF cAMP, PGE2 6 nM); details: antagonistic activity, PGE2 6 nM (EC80)
T3 construct: BT549 breast cancer cells, express high endogenous EP4 levels and very low EP2 levels; host or cells: BT549 breast cancer cells
Outline: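 BT549 cells (endogenous EP4, very low EP2) in HBSS/20 mM HEPES/0.2% BSA/2 mM IBMX, pre-incubated 45 min RT with compound, then stimulated 30 min RT with PGE2 6 nM (EC80). cAMP read by HTRF competitive immunoassay (665/620 nm), converted via calibrator to % of DMSO control; IC50 from duplicate dose-response curves.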

PTGER4 (EP4) = target: T4, PTGER4 (EP4) (Homo sapiens, UniProt P35408); test: hEP4 b-Arrestin Assay (PathHunter HEK 293 PTGER4 b-arrestin cells, PGE2 20 nM); details: antagonistic activity, beta-arrestin assay, HEK 293 PTGER4 cells, PGE2 20 nM (EC80); read-out: hEP4 b-arr IC50
T4 construct: host or cells: HEK 293 (PathHunter, stably transfected)
Experimental: The antagonistic activities of the compounds of formula (I) on the EP2 and EP4 receptors are also determined in accordance with the following experimental method.
The assay is using the PathHunter™ HEK 293 PTGER2 and PTGER4 b-arrestin cell lines from DiscoverX. The system is based on the Enzyme Fragment Complementation Technology. Two complementing fragments of the b-galactosidase enzyme are expressed within stably transfected cells. The larger portion of b-gal, termed EA for Enzyme Acceptor, is fused to the C-terminus of b-arrestin 2. The smaller fragment, termed ProLink™ tag, is fused to PTGER2 (EP2) or PTRGER4 (EP4) at the C-terminus. Upon activation, b-arrestin is recruited which forces the interaction of ProLink and EA, allowing complementation of the two fragments of b-gal and the formation of a functional enzyme which is capable of hydrolysing the substrate and generating a chemiluminescent signal.
The HEK 293 PTGER4 b-arrestin cells (DiscoverX 93-030-4C1) are detached from culture dishes with a cell dissociation buffer (Invitrogen, 13151-014), and collected in growing medium (GM: DMEM+Glutamax-I (Invitrogen 32430)/10% FCS, 1% Penicilin/streptomycin). 5000 cells per well of a 384 well plate (white with white bottom Greiner 781080) are seeded in 20 ul per well of GM. Plate is incubated at 37° C., 5% CO2 for 24 hours.
Stock solutions of test compounds are made at a concentration of 10 mM in DMSO, and serially diluted in DMSO to concentrations required for inhibition dose response curves (tested concentration range 10 μM-2 nM or 1 μM-0.2 nM).
PGE2 (Cayman 14010, stock solution: 100 μM in DMSO) is used as agonist at 20 nM final concentration, corresponding to EC80.
Five microliters of diluted compounds are transferred into the assay plate. Plate is pre-incubated 15 minutes at 37° C. Then five microliters of PGE2 (final conc. 20 nM) are transferred into the assay plate. Plate is incubated 120 minutes at 37° C.
PathHunter Glo Detection Kit components are thawed and mix according to manufacturer's instructions: 1 part Galacton Star Substrate with 5 parts Emerald II™ Solution, and 19 parts of PathHunter Cell Assay Buffer, respectively. Twelve μl of reagent are transferred to the assay plate and incubate for 1 hour at room temperature in the dark. Luminescence counts are read on a BMG Fluostar Optima reader according to manufacturer's instructions.
For each compound concentration calculate of the percentage of activity compared to DMSO control value as average ±STDEV. (each concentration is measured in duplicate)
IC50 values and curves are generated with XLfit software (IDBS) using Dose-Response One Site model 203. When compounds were measured multiple times, mean values are given.

T4 sequence (P35408 whole entry): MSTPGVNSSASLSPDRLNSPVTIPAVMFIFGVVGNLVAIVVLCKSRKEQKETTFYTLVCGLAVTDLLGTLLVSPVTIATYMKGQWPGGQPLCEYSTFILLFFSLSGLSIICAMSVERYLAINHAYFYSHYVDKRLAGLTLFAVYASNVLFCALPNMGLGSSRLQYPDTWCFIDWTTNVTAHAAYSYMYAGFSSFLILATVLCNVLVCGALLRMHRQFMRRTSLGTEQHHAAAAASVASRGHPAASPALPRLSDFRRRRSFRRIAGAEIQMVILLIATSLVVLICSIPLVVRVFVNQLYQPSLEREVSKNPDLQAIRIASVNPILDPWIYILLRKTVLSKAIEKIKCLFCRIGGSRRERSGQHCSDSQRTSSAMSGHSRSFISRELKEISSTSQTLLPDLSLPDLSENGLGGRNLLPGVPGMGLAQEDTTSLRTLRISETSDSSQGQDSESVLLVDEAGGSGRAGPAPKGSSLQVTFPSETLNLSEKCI
T3 sequence (P35408 whole entry): as above
T2 sequence (P43116 whole entry): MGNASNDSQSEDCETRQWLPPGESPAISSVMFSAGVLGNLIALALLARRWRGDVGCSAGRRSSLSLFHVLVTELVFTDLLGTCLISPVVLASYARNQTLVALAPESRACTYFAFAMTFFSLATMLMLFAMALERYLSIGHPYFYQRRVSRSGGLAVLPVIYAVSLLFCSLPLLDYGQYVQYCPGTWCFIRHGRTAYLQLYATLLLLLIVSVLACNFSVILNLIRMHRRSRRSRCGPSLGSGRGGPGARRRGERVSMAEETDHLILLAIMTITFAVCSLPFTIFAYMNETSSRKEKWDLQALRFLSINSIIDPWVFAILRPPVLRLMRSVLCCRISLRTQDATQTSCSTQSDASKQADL
T1 sequence (P43116 whole entry): as above

Structure (SMILES)	IC50 (PTGER2 (EP2)) [nM]	IC50 (EP2) [nM]	IC50 (EP4) [nM]	IC50 (PTGER4 (EP4)) [nM]
CCOc1cc(-c2cc(NCCc3cccc4ccsc34)ncn2)sc1C(=O)O [Example 103, 5-[6-(2-Benzo[b]thiophen-7-yl-ethylamino)-pyrimidin-4-yl]-3-ethoxy-thiophene-2-carboxylic acid]	33	79	73	314
CCOc1nc(-c2cc(NCCc3c(OC)ccc4ccccc34)ncn2)sc1-c1noc(=O)[nH]1 [Example 149, 3-(4-Ethoxy-2-{6-[2-(2-methoxy-naphthalen-1-yl)-ethylamino]-pyrimidin-4-yl}-thiazol-5-yl)-[1,2,4]oxadiazol-5(4H)-one]	5	15	52	6
CCOc1cc(-c2cc(NCCc3ccc(OC)c4ccccc34)ncn2)sc1C(=O)O [Example 59, 3-Ethoxy-5-{6-[2-(4-methoxy-naphthalen-1-yl)-ethylamino]-pyrimidin-4-yl}-thiophene-2-carboxylic acid]	156	141	38	17
CCOc1cc(-c2cc(NCCc3c(OC)ccc4ccccc34)ncn2)ccc1CC(=O)O [Example 160, (2-Ethoxy-4-{6-[2-(2-methoxy-naphthalen-1-yl)-ethylamino]-pyrimidin-4-yl}-phenyl)-acetic acid]	24	79	252	667
CCOc1cc(-c2cc(NCCc3cccc4ccccc34)ncn2)sc1C(=O)O [Example 9, 3-Ethoxy-5-[6-(2-naphthalen-1-yl-ethylamino)-pyrimidin-4-yl]-thiophene-2-carboxylic acid]	11	9	14	56
COc1ccc2ccccc2c1CCNc1cc(-c2cc(OCCN(C)C)c(C(=O)O)s2)ncn1 [Example 157, 3-(2-Dimethylamino-ethoxy)-5-{6-[2-(2-methoxy-naphthalen-1-yl)-ethylamino]-pyrimidin-4-yl}-thiophene-2-carboxylic Acid]	43	143	1040	1910
CCOc1cc(-c2cc(NCCc3c(OC)ccc4ccccc34)ncn2)sc1/C=C/C(=O)O [Example 118, (E)-3-(3-Ethoxy-5-{6-[2-(2-methoxy-naphthalen-1-yl)-ethylamino]-pyrimidin-4-yl}-thiophen-2-yl)-acrylic acid]	11	94	55	12
CCOc1cc(-c2cc(NCCc3cccc4sccc34)ncn2)sc1C(=O)O [Example 108, 5-[6-(2-Benzo[b]thiophen-4-yl-ethylamino)-pyrimidin-4-yl]-3-ethoxy-thiophene-2-carboxylic acid]	31	52	31	225
CCOc1cc(-c2cc(NCCc3c(OC)ccc4ccccc34)ncn2)ccc1-c1noc(=O)[nH]1 [Example 126, 3-(2-Ethoxy-4-{6-[2-(2-methoxy-naphthalen-1-yl)-ethylamino]-pyrimidin-4-yl}-phenyl)-4H-[1,2,4]oxadiazol-5-one]	5	20	43	34
CCOc1cc(-c2cc(NCCc3c(Cl)ccc4cccnc34)ncn2)sc1C(=O)O [Example 15, 5-{6-[2-(7-Chloro-quinolin-8-yl)-ethylamino]-pyrimidin-4-yl}-3-ethoxy-thiophene-2-carboxylic acid]	27	25	171	192
CCCc1cc(-c2cc(NCCc3c(OC)ccc4ccccc34)ncn2)ccc1C(=O)O [Example 121, 4-{6-[2-(2-Methoxy-naphthalen-1-yl)-ethylamino]-pyrimidin-4-yl}-2-propyl-benzoic acid]	12	5	53	308
Cn1ccc2c(CCNc3cc(-c4ccc(C(=O)O)c(OC5CCC5)c4)ncn3)cccc21 [Example 159, 2-Cyclobutoxy-4-{6-[2-(1-methyl-1H-indol-4-yl)-ethylamino]-pyrimidin-4-yl}-benzoic acid]	44	110	1050	864
CCOc1cc(-c2cc(NCCc3cccc4ccn(C)c34)ncn2)sc1C(=O)O [Example 24, 3-Ethoxy-5-{6-[2-(1-methyl-1H-indol-7-yl)-ethylamino]-pyrimidin-4-yl}-thiophene-2-carboxylic acid]	17	15	96	203
COc1ccc2ccccc2c1CCNc1cc(-c2ccc(-c3c(O)c(=O)c3=O)cc2)ncn1 [Example 116, 3-Hydroxy-4-(4-{6-[2-(2-methoxy-naphthalen-1-yl)-ethylamino]-pyrimidin-4-yl}-phenyl)-cyclobut-3-ene-1,2-dione]	25	67	241	1140
CCc1nc(-c2cc(NCCc3c(OC)ccc4ccccc34)ncn2)sc1C(=O)O [Example 148, 4-Ethyl-2-{6-[2-(2-methoxy-naphthalen-1-yl)-ethylamino]-pyrimidin-4-yl}-thiazole-5-carboxylic Acid]	20	27	548	264
CCOc1nc(-c2cc(NCCc3c(OC)ccc4ccccc34)ncn2)sc1C(=O)O [Example 147, 4-Ethoxy-2-{6-[2-(2-methoxy-naphthalen-1-yl)-ethylamino]-pyrimidin-4-yl}-thiazole-5-carboxylic Acid]	7	10	44	40
CCSc1cc(-c2cc(NCCc3ccc(C)c4ccccc34)ncn2)ccc1C(=O)O [Example 100, 2-Ethylsulfanyl-4-{6-[2-(4-methyl-naphthalen-1-yl)-ethylamino]-pyrimidin-4-yl}-benzoic acid]	133	206	76	206
CCOc1cc(-c2cc(NCCc3cc(OC)cc4ccccc34)ncn2)sc1C(=O)O [Example 42, 3-Ethoxy-5-{6-[2-(3-methoxy-naphthalen-1-yl)-ethylamino]-pyrimidin-4-yl}-thiophene-2-carboxylic acid]	32	31	35	15
CSc1cc(-c2cc(NCCc3cc(F)cc4ccccc34)ncn2)ccc1C(=O)O [Example 178, 4-{6-[2-(3-Fluoro-naphthalen-1-yl)-ethylamino]-pyrimidin-4-yl}-2-methylsulfanyl-benzoic acid]	142	–	–	871
CCOc1cc(-c2cc(NCCc3c(OC)ccc4ccccc34)ncn2)ccc1Cc1noc(=O)[nH]1 [Example 191, 3-(2-Ethoxy-4-{6-[2-(2-methoxy-naphthalen-1-yl)-ethylamino]-pyrimidin-4-yl}-benzyl)-[1,2,4]oxadiazol-5(4H)-one]	23	–	–	219
